Data taken from ChEMBL document CHEMBL1127059, “Synthesis and antiviral activity of 5'-deoxypyrazofurin” (J Med Chem, 1993).
Converted amounts (≈) assume the structure as drawn.

Columns and labels:
CCRF-CEM = assay type: functional, cell-based; details: Homo sapiens
ESM [1] = assay: Tested for inhibitory effect on DNA virus HSV-1(KOS) in ESM cell line; assay type: functional, cell-based; details: Homo sapiens
ESM [2] = assay: Tested for inhibitory effect on DNA virus HSV-2 (G) in ESM cell line; assay type: functional, cell-based; details: Homo sapiens
ESM [3] = assay: Tested for inhibitory effect on DNA virus TK-HSV-1 (B2006) in ESM cell line; assay type: functional, cell-based; details: Homo sapiens
ESM [4] = assay: Tested for inhibitory effect on DNA virus TK-HSV-1(VMW 1837) in ESM cell line; assay type: functional, cell-based; details: Homo sapiens
ESM [5] = assay: Tested for inhibitory effect on DNA virus VV in ESM cell line; assay type: functional, cell-based; details: Homo sapiens
ESM [6] = assay type: functional, cell-based; details: Homo sapiens
FM3A = assay type: functional, cell-based; details: Mus musculus
HEL [7] = assay: Tested for inhibitory effect on DNA virus CMV (AD-169) in HEL cell line; assay type: functional, cell-based; details: Homo sapiens
HEL [8] = assay: Tested for inhibitory effect on DNA virus CMV (Davis) in HEL cell line; assay type: functional, cell-based; details: Homo sapiens
HEL [9] = assay: Tested for inhibitory effect on DNA virus TK-VZV (07/1) in HEL cell line; assay type: functional, cell-based; details: Homo sapiens
HEL [10] = assay: Tested for inhibitory effect on DNA virus TK-VZV (YS/R) in HEL cell line; assay type: functional, cell-based; details: Homo sapiens
HEL [11] = assay: Tested for inhibitory effect on DNA virus VZV (Oka) in HEL cell line; assay type: functional, cell-based; details: Homo sapiens
HEL [12] = assay: Tested for inhibitory effect on DNA virus VZV (YS) in HEL cell line; assay type: functional, cell-based; details: Homo sapiens
HeLa [13] = assay: Tested for inhibitory effect on RNA virus Polio-1 in HeLa cell line; assay type: functional, cell-based; details: Homo sapiens
HeLa [14] = assay: Tested for inhibitory effect on RNA virus RSV in HeLa cell line; assay type: functional, cell-based; details: Homo sapiens
HeLa [15] = assay: Tested for inhibitory effect on RNA virus VSV in HeLa cell line; assay type: functional, cell-based; details: Homo sapiens
HeLa [16] = assay type: functional, cell-based; details: Homo sapiens
L1210 = assay type: functional, cell-based; details: Mus musculus
MDCK [17] = assay: Tested for inhibitory effect on RNA virus Influenza A in MDCK cell line; assay type: functional, cell-based; details: Canis lupus familiaris
MDCK [18] = assay: Tested for inhibitory effect on RNA virus Influenza B in MDCK cell line; assay type: functional, cell-based; details: Canis lupus familiaris
MDCK [19] = assay type: functional, cell-based; details: Canis lupus familiaris
MT4 [20] = assay: Tested for inhibitory effect on RNA virus HIV-1 in MT-4 cell line; assay type: functional, cell-based; details: Homo sapiens
Vero [21] = assay: Tested for inhibitory effect on RNA virus Coxsackie B4 in Vero cell line; assay type: functional, cell-based; details: Chlorocebus sabaeus
Vero [22] = assay: Tested for inhibitory effect on RNA virus JV in Vero cell line; assay type: functional, cell-based; details: Chlorocebus sabaeus
Vero [23] = assay: Tested for inhibitory effect on RNA virus PV-3 in Vero cell line; assay type: functional, cell-based; details: Chlorocebus sabaeus
Vero [24] = assay: Tested for inhibitory effect on RNA virus Reo-1 in Vero cell line; assay type: functional, cell-based; details: Chlorocebus sabaeus
Vero [25] = assay: Tested for inhibitory effect on RNA virus SV in Vero cell line; assay type: functional, cell-based; details: Chlorocebus sabaeus
Vero [26] = assay: Tested for inhibitory effect on RNA virus TV in Vero cell line; assay type: functional, cell-based; details: Chlorocebus sabaeus
Vero [27] = assay type: functional, cell-based; details: Chlorocebus sabaeus
HEL [28] = assay type: functional, cell-based; details: Homo sapiens
MT4 [29] = assay: Tested for inhibitory effect on RNA virus HIV-2 in MT-4 cell line; assay type: functional, cell-based; details: Homo sapiens
Vero [30] = assay: Tested for inhibitory effect on RNA virus SFV in Vero cell line; assay type: functional, cell-based; details: Chlorocebus sabaeus
MT4 [31] = assay: cells; details: Homo sapiens
Vero [32] = assay type: functional, cell-based; details: Chlorocebus sabaeus; remark: listed apart in the source

Compound	IC50 (CCRF-CEM)	IC50 (ESM [1])	IC50 (ESM [2])	IC50 (ESM [3])	IC50 (ESM [4])	IC50 (ESM [5])	IC50 (ESM [6])	IC50 (FM3A)	IC50 (HEL [8])	IC50 (HeLa [13])	IC50 (HeLa [14])	IC50 (HeLa [15])	IC50 (HeLa [16])	IC50 (L1210)	IC50 (MDCK [17])	IC50 (MDCK [18])	IC50 (MDCK [19])	IC50 (MT4 [20])	IC50 (Vero [21])	IC50 (MT4 [31])	further results
C[C@H]1OC(c2n[nH]c(C(N)=O)c2O)[C@H](O)[C@@H]1O (some centres undefined)	> 49 µg/mL	≥ 350 µg/mL	> 300 µg/mL	55 µg/mL (≈ 226 µM)	70 µg/mL (≈ 288 µM)	5.5 µg/mL (≈ 22.6 µM)	≥ 400 µg/mL	39 µg/mL (≈ 160 µM)	> 40 µg/mL	55 µg/mL (≈ 226 µM)	4 µg/mL (≈ 16.4 µM)	14 µg/mL (≈ 57.6 µM)	≥ 170 µg/mL	37 µg/mL (≈ 152 µM)	20 µg/mL (≈ 82.2 µM)	> 100 µg/mL	100 µg/mL (≈ 411 µM)	> 4 µg/mL	70 µg/mL (≈ 288 µM)	8.8 µg/mL (≈ 36.2 µM)	IC50 (HEL [7]): > 40 µg/mL; IC50 (HEL [9]): > 40 µg/mL; IC50 (HEL [10]): > 40 µg/mL; IC50 (HEL [11]): 40 µg/mL (≈ 164 µM); IC50 (HEL [12]): 22 µg/mL (≈ 90.5 µM); IC50 (Vero [22]): > 40 µg/mL; IC50 (Vero [23]): > 200 µg/mL; IC50 (Vero [24]): > 175 µg/mL; IC50 (Vero [25]): > 200 µg/mL; IC50 (Vero [26]): > 40 µg/mL; IC50 (Vero [27]): > 400 µg/mL; IC50 (HEL [28]): > 50 µg/mL; IC50 (MT4 [29]): > 4 µg/mL; IC50 (Vero [30]): > 200 µg/mL
Nc1nc2c(ncn2COCCO)c(=O)[nH]1 [ACYCLOVIR]									22 µg/mL (≈ 97.7 µM)											> 100 µg/mL	IC50 (HEL [28]): > 200 µg/mL
NC(=O)c1ncn([C@@H]2O[C@H](CO)[C@@H](O)[C@H]2O)n1 [RIBAVIRIN]	19 µg/mL (≈ 77.8 µM)	≥ 350 µg/mL	> 300 µg/mL	> 135 µg/mL	110 µg/mL (≈ 450 µM)	45 µg/mL (≈ 184 µM)	≥ 400 µg/mL	3.9 µg/mL (≈ 16 µM)		70 µg/mL (≈ 287 µM)	4 µg/mL (≈ 16.4 µM)	14 µg/mL (≈ 57.3 µM)	≥ 400 µg/mL	7.1 µg/mL (≈ 29.1 µM)	4 µg/mL (≈ 16.4 µM)	4 µg/mL (≈ 16.4 µM)	> 200 µg/mL	> 5 µg/mL	20 µg/mL (≈ 81.9 µM)	6.5 µg/mL (≈ 26.6 µM)	IC50 (Vero [22]): 5.2 µg/mL (≈ 21.3 µM); IC50 (Vero [23]): 20 µg/mL (≈ 81.9 µM); IC50 (Vero [24]): 160 µg/mL (≈ 655 µM); IC50 (Vero [25]): ≥ 250 µg/mL; IC50 (Vero [26]): 6.4 µg/mL (≈ 26.2 µM); IC50 (Vero [32]): > 400 µg/mL; IC50 (MT4 [29]): > 5 µg/mL; IC50 (Vero [30]): ≥ 235 µg/mL
